These are literature values, as cited in patent publication US20070059297A1, “Methods and compositions for improving visual acuity” (Nestec, S.A., priority 2005, published 2007).

This series concerns rat retina neuronal cells. To be noted: in vitro incubation.

For the compound `CC/C=C\C/C=C\C/C=C\C/C=C\C/C=C\C/C=C\CCC(=O)O` [DHA, docosahexaenoic acid], the “DHA content of cells incubated with DHA versus cells incubated with other fatty acids” value is reported as “four- to six-fold more DHA”.
